The conditions of data set [1]: oral; cited from earlier work.
A short description of data set [2]: Dynamic vapor sorption (DVS) hygroscopicity. Type of data set: physicochemical. On the set-up: key to Hygroscopicity: “+/+/+” indicates most favorable; “+/+” indicates more favorable; “+” indicates favorable; “−” indicates unfavorable; “−/−” indicates more unfavorable; “−/−/−” indicates most unfavorable. To be noted: for physical form conversion throughout the DVS cycle: DVS cycle 0-95% RH; for hygroscopicity (in words): DVS isotherm; for acquisition of water on exposure to elevated relative humidities: >95% RH. An excerpt:
Pharmaceutically acceptable salts of the compound of Formula (I) suitable for pharmaceutical manufacture may also be characterized as non-hygroscopic or slightly hygroscopic, preferably non-hygroscopic. The hygroscopicity may be measured herein by performing a moisture adsorption-desorption isotherm using a dynamic vapor sorption (DVS) analyzer with a starting exposure of 30% relative humidity (RH), increasing humidity up to 95% RH, decreasing humidity to 0%, and finally increasing the humidity back to the starting 30% RH, and classified according to the following: • non-hygroscopic: <0.2%; slightly hygroscopic: ≥0.2% and <2%; hygroscopic: ≥2% and <15%; very hygroscopic: ≥15%; deliquescent: sufficient water is absorbed to form a liquid; all values measured as weight increase (w/w due to acquisition of water) at >95% RH and 25° C.
Dynamic vapor sorption-desorption experiments were carried out using a DVS Resolution instrument supplied by Surface Measurement Systems. Data were acquired using the following acquisition parameters: • Solvent; Water • Start relative humidity; 30% RH • Relative humidity cycle (% RH); 30, 40, 50, 60, 70, 80, 90, 95, 90, 80, 70, 60, 50, 40, 30, 20, 10, 0, 10, 20, 30 • Equilibrium condition (dm/dt); 0.002%/minute • Equilibrium condition window; 10 minutes • Minimum stage period; 5 minutes • Maximum stage period; 360 minutes • Temperature; 25° C. • Carrier gas; Nitrogen • Carrier gas flow rate; 200 mL·min^−1 (Total)
Typically, 20-50 mg of the test substance was mounted in a gauze basket and transferred to the sample port. Excess static electricity was removed throughout sample handling and sample mounting using a ^210Po static eliminator. Instrument performance checks were completed using traceable samples of sodium chloride and lithium chloride. For selected samples, the cycle was repeated using the same sample to assess any change in physical form induced on exposure to elevated relative humidity.

The nature of data set [3]: Salt form assessment (crystallization propensity, DSC/XRPD physical properties, appearance, counter-ion acceptability, salt suitability). Type of data set: physicochemical. On the set-up: key: “+/+/+” indicates most favorable; “+/+” indicates more favorable; “+” indicates favorable; “−” indicates unfavorable; “−/−” indicates more unfavorable; “−/−/−” indicates most unfavorable. The settings on record: for Physical properties (crystallinity, melt, enthalpy, polymorph tendency): DSC, XRPD; for Crystallization propensity: crystallization from ethanol. As for the experimental part:
Samples were analyzed by differential scanning calorimetry (DSC), X-ray powder diffraction (XRPD), and dynamic vapor sorption (DVS). In addition, the appearance and visual properties of each sample were assessed, in addition to propensity for crystallization.
A summary of the data obtained from the analyses of the individual salt forms of Examples 1-9 are presented in Table 10, with advantageous and detrimental properties summarized using the following nomenclature: “+/+/+” indicates most favorable; “+/+” indicates more favorable; “+” indicates favorable; “−” indicates unfavorable; “−/−” indicates more unfavorable; “−/−/−” indicates most unfavorable.

The conditions of data set [4]: prolonged storage; cited from earlier work.

Each structure is given as a SMILES string.

As to `COc1cc(CCNCc2ccccc2OC)c(OC)cc1Cl` [2C—C-NBOMe, 2-(4-Chloro-2,5-dimethoxyphenyl)-N-[(2-methoxyphenyl)methyl]ethan-1-amine], in data set [1], the “orally active dose (lowest)” value is at least 25 µg and the “very strong psychedelic doses” value was 500 to 700 µg.

In the case of `CN(C)CCc1c[nH]c2ccccc12` [Example 1, 2-(1H-indol-3-yl)-N,N-dimethylethan-1-amine], in data set [2] (DVS), the Hygroscopicity result was “+/+/+”. Besides, in data set [2], the “physical form conversion throughout the DVS cycle” value is listed as “no evidence of physical form conversion” and the “hygroscopicity (in words)” value was “no significant hygroscopicity”. For the same molecule, the “acquisition of water on exposure to elevated relative humidities” value in data set [2] (DVS, 25° C.) is reported as under 0.2 % w/w. In data set [3], the Appearance result was “+/+/+”; the “Physical properties (crystallinity, melt, enthalpy, polymorph tendency)” value (shortened to “Physical properties”) is recorded as “+/+/+”; the Crystallization propensity result is recorded as “+/+/+”.

In the case of `CN(C)CCc1c[nH]c2ccccc12` [Example 2, 2-(1H-indol-3-yl)-N,N-dimethylethan-1-amine], in data set [2] (DVS), the Hygroscopicity result is “+/+/+”. Moreover, in data set [2], the “physical form conversion throughout the DVS cycle” value was “no evidence of physical form conversion” and the “hygroscopicity (in words)” value is “no significant hygroscopicity”. Besides, the “acquisition of water on exposure to elevated relative humidities” value in data set [2] (DVS, 25° C.) was under 0.05 % w/w. In data set [3], the Appearance result is reported as “+/+/+”; the “Physical properties” value is on record as “+/+/+”; the Crystallization propensity result is listed as “+/+/+”.

Regarding `CN(C)CCc1c[nH]c2ccccc12` [Example 3, 2-(1H-indol-3-yl)-N,N-dimethylethan-1-amine], in data set [2] (DVS), the Hygroscopicity result is reported as “+/+/+”. In data set [2], the “physical form conversion throughout the DVS cycle” value is reported as “no evidence of physical form conversion” and the “hygroscopicity (in words)” value is given as “no significant hygroscopicity”. Moreover, in data set [2] (DVS, 25° C.), the “acquisition of water on exposure to elevated relative humidities” value is reported as under 0.06 % w/w. Also, in data set [3], the Appearance entry is listed as “+/+/+”; the “Physical properties” value was “+/+/+”; the Crystallization propensity result was “+”.

`CN(C)CCc1c[nH]c2ccccc12` [Example 4, 2-(1H-indol-3-yl)-N,N-dimethylethan-1-amine]: the Hygroscopicity entry in data set [2] (DVS) was “+/+/+”. In addition, in data set [2], the “physical form conversion throughout the DVS cycle” value is recorded as “no evidence of physical form conversion” and the “hygroscopicity (in words)” value is given as “no significant hygroscopicity”. For the same molecule, the “acquisition of water on exposure to elevated relative humidities” value in data set [2] (DVS, 25° C.) is reported as under 0.5 % w/w. Further, in data set [3], the Appearance entry is “+/+/+”; the “Physical properties” value is on record as “+/+/+”; the Crystallization propensity result was “−”.

For the molecule `CN(C)CCc1c[nH]c2ccccc12` [Example 5, 2-(1H-indol-3-yl)-N,N-dimethylethan-1-amine], the Hygroscopicity result in data set [2] (DVS) is listed as “−”. For the same molecule, in data set [2] (DVS, 25° C., on exposure to 95% RH), the water uptake result is on record as “approximately 3 % w/w”. Further, in data set [3], the Appearance result is given as “+/+”; the “Physical properties” value is “+/+”; the Crystallization propensity entry is “+”.

Turning to `CN(C)CCc1c[nH]c2ccccc12` [Example 6, 2-(1H-indol-3-yl)-N,N-dimethylethan-1-amine], in data set [2] (DVS), the Hygroscopicity result is listed as “−/−/−” and the “behavior at elevated relative humidities” value is reported as “deliquesce”. For the same molecule, in data set [3], the Appearance result is on record as “+/+/+”; the “Physical properties” value is “+/+”; the Crystallization propensity result is reported as “−”.

As to `CN(C)CCc1c[nH]c2ccccc12` [Example 7, 2-(1H-indol-3-yl)-N,N-dimethylethan-1-amine], the Hygroscopicity entry in data set [2] (DVS) is given as “−/−/−”. For the same molecule, the “physical form conversion throughout the DVS cycle” value in data set [2] is reported as “a phase change was induced”. For the same molecule, the “water uptake at relative humidities exceeding 80%” value in data set [2] (DVS, >80% RH) was “excessive”. In addition, the equilibrium water content in data set [2] (DVS, typical ambient relative humidities) is on record as over 3%. In data set [3], the Appearance result was “−”; the “Physical properties” value is “−/−”; the Crystallization propensity entry is given as “−”.

Turning to `CN(C)CCc1c[nH]c2ccccc12` [Example 8, 2-(1H-indol-3-yl)-N,N-dimethylethan-1-amine], in data set [2] (DVS), the Hygroscopicity result is recorded as “−/−/−” and the “behavior at elevated relative humidities” value was “deliquesce”. Besides, in data set [3], the Appearance result was “−”; the “Physical properties” value was “−/−”; the Crystallization propensity result is listed as “−”.

As to `CN(C)CCc1c[nH]c2ccccc12` [Example 9, 2-(1H-indol-3-yl)-N,N-dimethylethan-1-amine], the Hygroscopicity entry in data set [2] (DVS) was “−/−/−”. For the same molecule, in data set [3], the Appearance result is reported as “−”; the “Physical properties” value is reported as “−/−”; the Crystallization propensity entry is recorded as “−”.

With `CN(C)CCc1c[nH]c2ccccc12` [Example I-1, 2-(1H-indol-3-yl)-N,N-dimethylethan-1-amine], the storage sensitivity entry in data set [4] was “sensitive to oxygen, heat, and light”.

These data come from US20250051279A1, “TRYPTAMINE COMPOSITIONS AND METHODS” (priority 2022, published 2025).
